The target of assay [1] is T1, MASL1 (Homo sapiens, UniProt Q9Y4C4).
T1 construct: gene MFHAS1; overexpressed in HEK293T, clarified lysate; plasmid from Genecopoeia
T1 sequence (Q9Y4C4 2-1052): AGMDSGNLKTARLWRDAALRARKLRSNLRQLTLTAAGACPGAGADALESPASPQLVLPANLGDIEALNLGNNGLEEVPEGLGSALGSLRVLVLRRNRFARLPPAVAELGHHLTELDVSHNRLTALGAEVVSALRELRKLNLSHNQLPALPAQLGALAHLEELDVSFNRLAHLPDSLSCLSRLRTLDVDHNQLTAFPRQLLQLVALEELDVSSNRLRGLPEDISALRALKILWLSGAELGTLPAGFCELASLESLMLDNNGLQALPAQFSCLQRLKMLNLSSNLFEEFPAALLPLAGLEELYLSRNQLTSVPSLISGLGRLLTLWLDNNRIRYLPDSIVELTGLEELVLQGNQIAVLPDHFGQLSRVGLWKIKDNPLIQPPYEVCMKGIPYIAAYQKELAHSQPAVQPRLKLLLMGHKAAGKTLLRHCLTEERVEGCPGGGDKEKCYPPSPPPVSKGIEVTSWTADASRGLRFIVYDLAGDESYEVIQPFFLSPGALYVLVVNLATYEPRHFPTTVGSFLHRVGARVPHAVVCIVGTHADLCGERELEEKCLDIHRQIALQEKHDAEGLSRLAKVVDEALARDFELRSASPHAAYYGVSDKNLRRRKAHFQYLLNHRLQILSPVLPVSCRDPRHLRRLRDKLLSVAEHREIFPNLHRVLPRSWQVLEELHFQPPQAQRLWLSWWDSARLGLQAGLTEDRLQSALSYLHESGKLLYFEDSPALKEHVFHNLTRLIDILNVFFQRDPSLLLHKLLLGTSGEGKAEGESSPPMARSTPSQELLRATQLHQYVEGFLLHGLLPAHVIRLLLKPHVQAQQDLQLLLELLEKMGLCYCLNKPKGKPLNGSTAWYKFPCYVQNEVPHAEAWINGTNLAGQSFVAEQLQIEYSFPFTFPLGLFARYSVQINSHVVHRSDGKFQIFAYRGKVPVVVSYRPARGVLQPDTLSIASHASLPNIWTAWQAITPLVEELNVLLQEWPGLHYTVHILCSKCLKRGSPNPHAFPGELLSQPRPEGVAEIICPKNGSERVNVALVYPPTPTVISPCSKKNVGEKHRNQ
The experiment in a line: size exclusion chromatography of lysate, shift between HMW and LMW complex, dot blot. It counts as biochemical. Particulars: 200 µM GDP in HEK293T lysate and mobile phase, pH 7.5; indirect read-out of binding, K422A used as control. On the technique in general: Size exclusion chromatography separates by hydrodynamic size, large species first.

For assay [2], the target named is T1, MASL1. Briefly: pulldown on GTP-sepharose beads, competition with free GTP, immunoblot. Format: binding. Particulars: clarified HEK293T lysate, 4 °C, 2 h; free GTP 10 mM; immobilised GTP; ROC domain site. On the technique in general: Immunoblotting shows a protein as a band on a membrane.

Molecules are shown by their SMILES.

Regarding `Nc1nc2c(ncn2[C@@H]2O[C@H](COP(=O)(O)OP(=O)(O)O)[C@@H](O)[C@H]2O)c(=O)[nH]1` [GDP], the “size exclusion chromatography of lysate, shift between HMW and LMW complex, dot” value on MASL1 [1] was “GDP shifted the equilibrium between LMW and HMW complex towards the latter”.
Consider `Nc1nc2c(ncn2[C@@H]2O[C@H](COP(=O)(O)OP(=O)(O)OP(=O)(O)O)[C@@H](O)[C@H]2O)c(=O)[nH]1` [GTP], for which the “pulldown on GTP-sepharose beads, competition with free GTP, immunoblot” value at MASL1 [2] is on record as “Wild type HA-tagged MASL1 was able to bind GTP immobilized on sepharose beads”.

These data come from paper PMC3995007, “GTP binding controls complex formation by the human ROCO protein MASL1” (The Febs Journal, 2013).
